“Also recorded” adds a separate entry of the source.
Assays:
Format in all cases: cell-based
[1] = target: T1, OR8D2 (Homo sapiens, UniProt Q9GZM6); experiment: Ca-imaging of OR8D2-transfected HEK293 cells; design: key to OR8D2 responded to odorant: ▪: 18 olfactory receptors responded to 32 odorants in related with specific anosmia; details: for OR8D2 responded to odorant / Response of OR8D2 to odorant, in words: Ca-imaging; for OR8D2 responded to odorant: HEK293 cells, individual odorant 200 μM, significant response p<0.05; for Response of OR8D2 to odorant, in words: single odorants 200 μM; for Number of cell responses, Experiment (OR8D2): odorant 200 μM, approximately 2000 transfected cells in three times of measuring (Table 4, FIG. 5)
T1 construct: specific primers, which amplify the complete open reading frame; expressed in transfected cells; host or cells: HEK293
T1 sequence (Q9GZM6 1-311): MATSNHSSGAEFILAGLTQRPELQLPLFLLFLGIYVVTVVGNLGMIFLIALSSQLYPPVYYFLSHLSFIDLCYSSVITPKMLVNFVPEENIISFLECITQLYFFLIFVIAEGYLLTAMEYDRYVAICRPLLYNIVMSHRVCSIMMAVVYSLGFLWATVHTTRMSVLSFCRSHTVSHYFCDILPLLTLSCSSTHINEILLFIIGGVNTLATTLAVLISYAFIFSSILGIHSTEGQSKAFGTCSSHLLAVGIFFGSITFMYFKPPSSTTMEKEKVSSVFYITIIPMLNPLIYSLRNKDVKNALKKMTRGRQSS
Method: (§1) HEK293 cells were cultivated in Petri dishes (Ø35 mm) as previously described (Benbernou et al. 2007). We grow up HEK293 cells in culture medium containing standard DMEM with 10% heat-inactivated fetal bovine serum, 2 mM L-glutamine, 100 units/ml penicillin, and 100 units/ml streptomycin in a humidified atmosphere (37° C., 5% CO2). After 2-3 days, the transfection process was carried out, whereby the cell culture was 70-80% confluent. The calciumphosphate method was applied to transfect DNA plasmid transiently in HEK293 cells in case of Ca-imaging method.
(§2) Calcium cations and phosphate anions created crystal precipitations coupled with DNA which could invade into the cells through endocytosis. Cells were transiently transfected with plasmid DNA which consists of pCI expression vector and PCR-amplified full-length cDNA of olfactory receptors candidates, and also Gα15, RTP1, Myr-Ric8A, HSC70, and m-Cherry as cofactors. The precipitation could be created after 15-20 min, with dropping the transfection solution on HEK293 cells. Before measuring by Ca-imaging cells were incubated 48-60 hours at 370 C, 5% CO2. Cationic liposome-mediated transfection method was applied to transfect DNA plasmid transiently in HANA3A cells in case of CRE-Luciferase and CRE-SEAP assays.
(§3) Calcium imaging of the transfected HEK293 cells was done by using chambers determinate an inverted microscope (Olympus; IX70) using a 10× objective (CPIanFL N Olympus). Fluorescence emission was determined every 4 s by using a CCD camera (Charge Coupled Device, C9100 Hamamatsu). The capillary tube which was responsible to supply odorants was generated closely above the cells. The columns filled with odorants, DMSO and ATP. Odorants were manually monitored to drop each 4-5 s to transfected cells. Solutions with drop wise form spread on HEK293 cells in 35 mm dishes.
(§4) In experiments, Fura-2 Acetoxymethylester (Fura-2/AM) was applied. The non-polar Fura2/AM is fluorescent but not yet calcium-sensitive. Once diffuses into cell plasma, Fura-2/AM is hydrolyzed to Fura-2 which is calcium-sensitive and functions as Ca2+ chelator. Regardless of the presence of calcium, Fura-2 emits at the wavelength of 510 nm. Once Fura-2 binds to free intracellular Ca2+ in cell plasma, its ratio of excitation at wavelengths of 340 nm and 380 nm is changed and correlated to the amount of intracellular Ca2+. According to this feature, the analysis of 340/380 nm excitation ratio for Fura-2 allows to quantify intracellular calcium levels.
(§5) In preparation for Ca-imaging measurements, transfected HEK293 cells were added 3 it Fura2/AM (3 μM) and incubated 30-45 min at 370 C, 5% CO2. After this step, experiments were carried out in a dark condition (Fura-2 is light-sensitive). After the incubation, medium of cell culture was replaced with 2 ml Ringer's solution.
(§6) Odorants were freshly prepared with DMSO as 1 M stocks solutions. Six mixtures (200 μM each chemical) were applied to cells sequentially (20 s each mixture/30 s Ringer). Those ORs tested with single odorants that had generated a response to odorant mixture group previously. Odorants were prepared in 100-200 μM concentration.
(§7) Ringer's solution was used for washing cells between measuring by two different odorants. Positive response was determined by the timing of the response, the strength of the response (more than twofold higher than the noise amplitude of the baseline), and the shape of the response curve (sharp rise in curve with gradual recovery). The typical shape of response curves was established by observing responses to repeated stimulation with 200 μM of odorants. After testing with single odorants at 100 μM, stimulating odorants were often retested at 200 μM concentrations. To confirm the result of every receptor that produced a significant response curves, the experiment was repeated for twelve times. Finally, cells were exposed to ATP (0.25 mM) which could activate P2Y receptor channel and induce Ca2+ influx into cells. […]

[2] = target: T2, OR10A6 (Homo sapiens, UniProt Q8NH74); experiment: Ca-imaging of OR10A6-transfected HEK293 cells; design: key to OR10A6 responded to odorant: ▪: 18 olfactory receptors responded to 32 odorants in related with specific anosmia; details: for OR10A6 responded to odorant: HEK293 cells, individual odorant 200 μM, significant response p<0.05; for Response of OR10A6 to odorant, in words: single odorants 200 μM
T2 construct: specific primers, which amplify the complete open reading frame; expressed in transfected cells; host or cells: HEK293
T2 sequence (Q8NH74 1-314): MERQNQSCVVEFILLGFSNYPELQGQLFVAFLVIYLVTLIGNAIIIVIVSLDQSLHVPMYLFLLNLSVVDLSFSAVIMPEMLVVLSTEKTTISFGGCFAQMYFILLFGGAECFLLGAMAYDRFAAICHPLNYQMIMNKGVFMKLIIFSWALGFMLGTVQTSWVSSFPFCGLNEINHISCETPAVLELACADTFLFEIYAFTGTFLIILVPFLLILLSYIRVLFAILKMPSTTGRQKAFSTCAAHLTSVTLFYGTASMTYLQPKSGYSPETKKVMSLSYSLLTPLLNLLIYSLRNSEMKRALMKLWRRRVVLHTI
Method: as §1, §2, §3, §4, §5, §6
Ringer's solution was used for washing cells between measuring by two different odorants. Positive response was determined by the timing of the response, the strength of the response (more than twofold higher than the noise amplitude of the baseline), and the shape of the response curve (sharp rise in curve with gradual recovery). […]

[3] = target: T3, OR8B4 (Homo sapiens, UniProt Q96RC9); experiment: Ca-imaging of OR8B4-transfected HEK293 cells; design: key to OR8B4 responded to odorant: ▪: 18 olfactory receptors responded to 32 odorants in related with specific anosmia; details: for Response of OR8B4 to odorant, in words: single odorants 200 μM
T3 construct: specific primers, which amplify the complete open reading frame; expressed in transfected cells; host or cells: HEK293
T3 sequence (Q96RC9 1-309): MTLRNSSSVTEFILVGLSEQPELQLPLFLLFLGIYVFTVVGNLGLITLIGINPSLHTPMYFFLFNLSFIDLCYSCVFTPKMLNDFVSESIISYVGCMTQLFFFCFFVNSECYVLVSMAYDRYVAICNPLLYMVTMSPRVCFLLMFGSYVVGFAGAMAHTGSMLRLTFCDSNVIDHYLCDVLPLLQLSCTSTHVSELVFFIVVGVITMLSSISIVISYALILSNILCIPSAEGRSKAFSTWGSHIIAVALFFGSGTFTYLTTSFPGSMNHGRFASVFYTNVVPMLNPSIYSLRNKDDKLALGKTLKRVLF
Method: as §1, §2, §3, §4, §5, §6, §7

[4] = target: T4, OR4X2 (Homo sapiens, UniProt Q8NGF9); experiment: Ca-imaging of OR4X2-transfected HEK293 cells; details: odorant 200 μM, approximately 2000 transfected cells in three times of measuring (Table 4, FIG. 5)
T4 construct: specific primers, which amplify the complete open reading frame; expressed in transfected cells; host or cells: HEK293
T4 sequence (Q8NGF9 1-303): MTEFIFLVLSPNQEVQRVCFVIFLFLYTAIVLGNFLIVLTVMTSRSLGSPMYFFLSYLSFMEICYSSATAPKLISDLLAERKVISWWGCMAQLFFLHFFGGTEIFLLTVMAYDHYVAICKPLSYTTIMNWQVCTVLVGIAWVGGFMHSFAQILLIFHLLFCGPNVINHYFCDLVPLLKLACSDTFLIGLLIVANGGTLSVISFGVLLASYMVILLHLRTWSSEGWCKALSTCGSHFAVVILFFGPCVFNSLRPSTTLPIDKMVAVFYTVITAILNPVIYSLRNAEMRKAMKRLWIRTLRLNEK
Method: as §1, §2, §3, §4, §5, §6, §7

[5] = test system: HEK293 cells transfected with all cofactors and pCI plasmids without ORs; experiment: Ca-imaging of control HEK293 cells without OR; details: odorant 200 μM, three times of measuring (Table 4, FIG. 5)
Method: as §1, §2, §3, §4, §5, §6, §7

[6] = target: T5, OR1B1 (Homo sapiens, UniProt Q8NGR6); experiment: Ca-imaging of OR1B1-transfected HEK293 cells; design: key to OR1B1 responded to odorant: ▪: 18 olfactory receptors responded to 32 odorants in related with specific anosmia; details: for Number of cell responses, Experiment (OR1B1): odorant 200 μM, approximately 2000 transfected cells in three times of measuring (Table 4, FIG. 5)
T5 construct: specific primers, which amplify the complete open reading frame; expressed in transfected cells; host or cells: HEK293
T5 sequence (Q8NGR6 1-317): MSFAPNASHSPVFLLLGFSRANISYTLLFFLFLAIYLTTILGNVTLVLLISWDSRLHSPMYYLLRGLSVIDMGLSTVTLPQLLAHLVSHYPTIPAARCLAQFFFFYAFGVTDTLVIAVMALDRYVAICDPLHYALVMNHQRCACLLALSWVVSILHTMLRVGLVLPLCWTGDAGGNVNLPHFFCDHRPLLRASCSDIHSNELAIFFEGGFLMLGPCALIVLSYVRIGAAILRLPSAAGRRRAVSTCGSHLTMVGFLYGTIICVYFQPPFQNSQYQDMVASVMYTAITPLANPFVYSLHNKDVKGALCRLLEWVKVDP
Method: as §1, §2, §3, §4, §5, §6, §7

[7] = target: T6, OR2L8 (Homo sapiens, UniProt Q8NGY9); experiment: Ca-imaging of OR2L8-transfected HEK293 cells; design: key to OR2L8 responded to odorant: ▪: 18 olfactory receptors responded to 32 odorants in related with specific anosmia
T6 construct: specific primers, which amplify the complete open reading frame; expressed in transfected cells; host or cells: HEK293
T6 sequence (Q8NGY9 1-312): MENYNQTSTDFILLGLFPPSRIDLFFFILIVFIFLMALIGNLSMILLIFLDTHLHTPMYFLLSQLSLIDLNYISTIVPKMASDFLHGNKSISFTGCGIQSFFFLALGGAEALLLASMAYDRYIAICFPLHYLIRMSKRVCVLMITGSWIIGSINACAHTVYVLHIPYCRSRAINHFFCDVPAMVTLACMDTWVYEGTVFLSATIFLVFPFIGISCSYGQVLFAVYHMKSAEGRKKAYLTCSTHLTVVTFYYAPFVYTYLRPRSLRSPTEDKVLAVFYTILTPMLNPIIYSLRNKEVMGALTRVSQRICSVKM
Method: as §1, §2, §3, §4, §5, §6, §7

[8] = Ca-imaging, HEK293 cells, individual odorant 200 μM, significant response p<0.05
[9] = Ca-imaging, single odorants 200 μM

Row | SMILES | OR8D2 responded to odorant [1] | Number of cell responses, Experiment (OR8D2) [1] | OR10A6 responded to odorant [2] | Response of OR8D2 to odorant, in words [1] | Response of OR10A6 to odorant, in words [2] | Response of OR8B4 to odorant, in words ([3]; Ca-imaging) | Number of cell responses, Control [5] | also measured
1 | CCCCCCO [Alcohol C6] | ▪ | 9 | ▪ | elicited a response; also recorded: significantly activated; also recorded: detected | elicited a response; also recorded: detected | – | – | –
2 | COc1ccc(C=O)cc1 [Anisic aldehyde, Anisic Aldehyde] | – | – | – | – | – | responded significantly | 0 | OR8B4 responded to odorant [3, 8]: ▪; Number of cell responses (OR8B4) ([3]; odorant 200 μM, approximately 2000 transfected cells in three times of measuring (FIG. 5)): 14; Number of cell responses, Experiment (OR4X2) [4]: 14
3 | CC(C)(CO)Cc1ccccc1 [Muguet alcohol, Muguetalcohol] | ▪ | 21 | ▪ | significantly activated; also recorded: detected | detected | activated | 0 | –
4 | Cc1occc(=O)c1O [3-Hydroxy-2-Methyl-4-Pyran, 3-Hydroxy-2-Methyl-4-Pyran-4-one] | – | – | – | – | – | – | 5 | OR1B1 responded to odorant [6, 8]: ▪; Response of OR1B1 to odorant, in words [6, 9]: significantly (P<0.05) activated; Number of cell responses, Experiment (OR1B1) ([6]; listed as 3-Hydroxy-2-methyl-4-pyranone): 35; Number of cell responses, Experiment (OR1B1) ([6]; listed as 3-hydroxy-2-methyl-4-pyrane): 9
5 | CCCC(O)CCC1C(C)CCCC1(C)C (centres unmarked) [Timbrol, Timberol] | – | – | – | – | – | – | 1 | OR2L8 responded to odorant [7, 8]: ▪; Response of OR2L8 to odorant, in words [7, 9]: Ca2+ concentration increased; Number of cell responses, Experiment (OR2L8) ([7]; odorant 200 μM, approximately 2000 transfected cells in three times of measuring (Table 4, FIG. 5)): 10

Source: patent US9939427B2, “Method for evaluating the scent performance of perfumes or perfume mixtures” (Symrise AG, priority 2013, dated 2018)
